Measurements as given in patent USRE38792E1, “Modified bacterial cellulose” (Ajinomoto Co., Ltd., priority 1996, dated 2005).

How the values were obtained:
[1] = system: Acetobacter pasteurianus FERM BP-4176; experiment: Shape/length of cellulose-producing bacterium by optical microscope; type: cell-based
Method: (§1) Seed culture was carried out by placing 20 ml of the above culture medium in a 100 ml flask with baffle, inoculating Acetobacter pasteurianus FERM BP-4176, and then culturing at 25° C. for 3 days with stirring at 200 rpm. The culture medium was crushed by a blender, and added to a main culture medium having the above composition in a concentration of 2% seed culture.
(§2) The main culture was carried out by static culture at 25° C. During the culture, culture solution and bacterial cellulose were withdrawn, and the morphology of bacteria was observed by an optical microscope, an electron microscope and an atomic force microscope.
(§3) Six main culture media were used, and nalidixic acid (NA) was added thereto in a concentration of 0.01 mM, 0.05 mM, 0.1 mM, 0.2 mM or 1.0 mM except one medium to which NA was not added.
(§4) Acetobacter pasteurianus FERM BP-4176 was cultured in static culture, and the culture solution and bacterial cellulose were withdrawn, and the shape of bacteria was observed by the optical microscope, the electron microscope and the atomic force microscope, similar to Example 1, except that chloramphenicol was used instead of nalidixic acid.
That is, six main culture media having the aforementioned composition were used, and chloramphenicol (CP) was added thereto in a concentration of 0.1 mM, 0.2 mM, 0.3 mM, 0.5 mM or 1.0 mM except one medium to which CP was not added.
as §4, with “form” for “shape”
That is, four main culture media having the aforementioned composition were used, and dithiothreitol (DTT) was added thereto in a concentration of 0.5 mM, 1.0 mM or 2.0 mM except one medium to which DTT was not added.
as §4, with “in agitation culture at 180 rpm instead of” for “in”, “electro” for “electron”, “1.” for “1, except that chloramphenicol was used instead of nalidixic acid.”
That is, […] main culture media having the aforementioned composition were used, and nalidixic acid (NA) was added thereto in a concentration of 0.10 mM, or 0.20 mM, except one medium to which NA was not added.

[2] = system: Acetobacter pasteurianus FERM BP-4176; experiment: Production of bacterial cellulose in static culture; type: cell-based; details: NA 0.01 to 1.0 mM
Method: The culture medium used was composed of 50.0 g/l sucrose, 5.0 g/l “Total Amino Acid” (Ajinomoto Co., Inc.), 0.2 g/l phytic acid, 2.4 g/l magnesium sulfate and 1.0 g/l ammonium sulfate (pH 5.0).
as §1, §2, §3

| Compound | length of the bacterium as fraction of the bacteria cultured in no DTT medium ([1]; 1.0 mM DTT, static culture 2 days) | change of length of the cellulose-producing bacterium with increasing concentration ([1]; static culture) | length of the cellulose-producing bacterium, up to, relative to bacteria cultured in no CP medium ([1]; CP 0.1 to 1.0 mM, static culture) [times] | lengthening of bacterium compared with no addition of NA ([1]; 0.1 mM NA, static culture 2 days) [times] | change of length of the cellulose-producing bacteria ([1]; agitation culture 180 rpm, 0.10 or 0.20 mM NA) | production of bacterial cellulose with increasing NA concentration [2] |
| --- | --- | --- | --- | --- | --- | --- |
| O[C@H](CS)[C@H](O)CS (racemic) [DTT, dithiothreitol] | ⅓ to ½ | decreased | – | – | – | – |
| O=C(N[C@H](CO)[C@H](O)c1ccc([N+](=O)[O-])cc1)C(Cl)Cl [CP, chloramphenicol] | – | increased | 8 to 12 | – | – | – |
| CCn1cc(C(=O)O)c(=O)c2ccc(C)nc21 [NA, nalidixic acid] | – | – | – | 2 to 4 | increased | inhibited |
